According to patent US20220324835A1 (Nurix Therapeutics, Inc., priority 2018, published 2022):
pIC50: −log10 of the molar value.

How the values were obtained:
Cbl-b [1] = molecular target: T1, Cbl-b (Homo sapiens, UniProt Q13191); experiment: Cbl-b inhibition assay (Cbl-b activity assay, FRET, Biological Example 1; 100 mM NaCl, 60 nM Src kinase); type: biochemical; settings: upper bound stated in text lists; read-out: IC50 values in the Cbl-b inhibition assay of Biological Example 1
Outline: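 FRET read-out: loss of signal marks inhibition. Mix = biotin-Avi-Cbl-b (N-term), Src kinase, UbcH5B-Ub(Bodipy-FL, irreversible conjugate), streptavidin-Tb, assay buffer.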

T-cell [2] = experiment: CD25 cell surface staining on T-cells stimulated with anti-CD3 antibody alone (Biological Example 2); type: cell-based, human; settings: Homo sapiens, T-cell; 1 μM Cbl-b inhibitor; fold change over baseline (anti-CD3/anti-CD28 stimulated T-cells without inhibitor); read-out: CD25 staining Anti-CD3 stimulation
T-cell [3] = experiment: CD25 cell surface staining on T-cells co-stimulated with anti-CD3 and anti-CD28 antibody (Biological Example 2); type: cell-based, human; settings: Homo sapiens, T-cell, fold change over baseline (anti-CD3/anti-CD28 stimulated T-cells without inhibitor), read-out: CD25 staining Anti-CD3/Anti-CD28 stimulation; for fold induction at 0.3 µM: 0.3 μM Cbl-b inhibitor; for fold induction at 1 µM: 1 μM Cbl-b inhibitor
Outline: (§1)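 No assay protocol given; T-cells stimulated with anti-CD3 alone or anti-CD3 plus anti-CD28, with or without Cbl-b inhibitor. Activation read as IL-2 secretion or CD25 surface staining, expressed as fold over baseline from uninhibited cells […].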

T-cell [4] = experiment: IL-2 secretion from T-cells co-stimulated with anti-CD3 and anti-CD28 antibody (Biological Example 2); type: cell-based, human; settings: Homo sapiens, T-cell, fold change over baseline (anti-CD3/anti-CD28 stimulated T-cells without inhibitor), read-out: IL-2 secretion Anti-CD3/Anti-CD28 stimulation; for fold induction at 0.3 µM: 0.3 μM Cbl-b inhibitor; for fold induction at 1 µM: 1 μM Cbl-b inhibitor
Outline: as §1

T-cell [5] = experiment: IL-2 secretion from T-cells stimulated with anti-CD3 antibody alone (Biological Example 2); type: cell-based, human; settings: Homo sapiens, T-cell; 1 μM Cbl-b inhibitor; fold change over baseline (anti-CD3/anti-CD28 stimulated T-cells without inhibitor); read-out: IL-2 secretion Anti-CD3 stimulation
Cbl-b [6] = molecular target: T1, Cbl-b; experiment: Cbl-b activity assay (Cbl-b inhibition assay), TR-FRET of Cbl-b interaction with UbcH5B-Ub; type: biochemical; settings: assay buffer with 100 mM NaCl, 60 nM Src kinase; read-out: Cbl-b activity IC50
Outline: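 TR-FRET readout of Cbl-b binding to Bodipy-fluorescein N-terminally labeled Ub conjugated to UbcH5B C85K, measured with compound present. After compound incubation, 60 nM Src kinase with 1 mM ATP and 5 mM MgCl2 (final) was added for 1.5 h, then a further 1 h incubation; asterisked values used 50 mM NaCl buffer and 30 nM Src.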

T1 sequence (Q13191 36-427): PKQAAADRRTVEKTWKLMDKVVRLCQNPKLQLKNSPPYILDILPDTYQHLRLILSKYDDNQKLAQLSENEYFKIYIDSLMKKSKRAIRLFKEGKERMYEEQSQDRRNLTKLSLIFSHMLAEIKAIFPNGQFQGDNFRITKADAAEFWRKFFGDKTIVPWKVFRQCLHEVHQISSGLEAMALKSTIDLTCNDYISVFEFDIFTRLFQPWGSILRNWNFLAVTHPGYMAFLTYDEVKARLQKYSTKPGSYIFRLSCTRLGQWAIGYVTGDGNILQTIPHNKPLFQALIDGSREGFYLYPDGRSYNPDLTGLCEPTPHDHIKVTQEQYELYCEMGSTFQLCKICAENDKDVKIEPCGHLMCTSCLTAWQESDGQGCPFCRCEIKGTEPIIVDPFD

Row | SMILES | pIC50 (Cbl-b [1]) | fold induction at 1 µM (T-cell [2]) | fold induction at 0.3 µM (T-cell [3]) | fold induction at 1 µM (T-cell [3]) | fold induction at 0.3 µM (T-cell [4]) | fold induction at 1 µM (T-cell [4]) | fold induction at 1 µM (T-cell [5]) | pIC50 (Cbl-b [6])
1 | CC1CN(c2cc3c(c(C(F)(F)F)c2)CN(c2cccc(C4(Cc5nncn5C)COC4)c2)C3=O)C1C (centres unmarked) [Example 608, 6-(2,3-dimethylazetidin-1-yl)-2-(3-(3-((4-methyl-4H-1,2,4-triazol-3-yl)methyl)oxetan-3-yl)phenyl)-4-(trifluoromethyl)isoindolin-1-one] | ≥ 7.00 | 0.601 to 0.8 | 1.01 to 1.3 | 1.01 to 1.3 | 1.01 to 2.5 | 2.51 to 5 | 0.051 to 0.1 | > 7.00
2 | Cn1cnnc1CC1(c2cccc(N3Cc4c(cc(N5CC(C(F)F)C5)nc4C4CC4)C3=O)c2)COC1 [Example 609, 4-cyclopropyl-6-(3-(difluoromethyl)azetidin-1-yl)-2-(3-(3-((4-methyl-4H-1,2,4-triazol-3-yl)methyl)oxetan-3-yl)phenyl)-2,3-dihydro-1H-pyrrolo[3,4-c]pyridin-1-one] | ≥ 7.00 | 0.801 to 1 | 1.01 to 1.3 | 1.01 to 1.3 | 2.51 to 5 | 5 to 7.5 | 0.101 to 0.15 | > 7.00
3 | Cn1cnnc1CC1(c2cccc(NC(=O)c3cc(N4CC(C(F)F)C4)nc(C4CC4)n3)c2)COC1 [Example 610, 2-cyclopropyl-6-(3-(difluoromethyl)azetidin-1-yl)-N-(3-(3-((4-methyl-4H-1,2,4-triazol-3-yl)methyl)oxetan-3-yl)phenyl)pyrimidine-4-carboxamide] | ≥ 7.00 | 0.801 to 1 | 1.01 to 1.3 | 1.01 to 1.3 | 2.51 to 5 | > 7.5 | 0.101 to 0.15 | > 7.00
4 | Cn1cnnc1CC1(c2cccc(N3Cc4c(cc(C5CCC5)cc4C(F)(F)F)C3=O)c2)COC1 [Example 611, 6-cyclobutyl-2-(3-(3-((4-methyl-4H-1,2,4-triazol-3-yl)methyl)oxetan-3-yl)phenyl)-4-(trifluoromethyl)isoindolin-1-one] | ≥ 7.00 | 0.801 to 1 | 1.01 to 1.3 | 1.31 to 1.5 | 2.51 to 5 | 2.51 to 5 | 0.101 to 0.15 | > 7.00
5 | Cn1cnnc1CC1(c2cccc(N3Cc4c(cc(C5=CCOC5)cc4C(F)(F)F)C3=O)c2)COC1 [Example 612, 6-(2,5-dihydrofuran-3-yl)-2-(3-(3-((4-methyl-4H-1,2,4-triazol-3-yl)methyl)oxetan-3-yl)phenyl)-4-(trifluoromethyl)isoindolin-1-one] | ≥ 7.00 | 0.801 to 1 | 1.01 to 1.3 | 1.31 to 1.5 | 2.51 to 5 | 2.51 to 5 | 0.101 to 0.15 | > 7.00
6 | Cn1cnnc1CC1(c2cccc(N3Cc4c(cc(C5CCOC5)cc4C(F)(F)F)C3=O)c2)COC1 (centres unmarked) [Example 613, 2-(3-(3-((4-methyl-4H-1,2,4-triazol-3-yl)methyl)oxetan-3-yl)phenyl)-6-(THF-3-yl)-4-(trifluoromethyl)isoindolin-1-one] | ≥ 7.00 | 0.801 to 1 | 1.01 to 1.3 | 1.01 to 1.3 | 2.51 to 5 | 5 to 7.5 | 0.101 to 0.15 | > 7.00
7 | Cn1cnnc1CC1(c2cccc(N3Cc4c(cc(C5=CCCOC5)cc4C(F)(F)F)C3=O)c2)COC1 [Example 614] | ≥ 7.00 | 0.801 to 1 | 1.01 to 1.3 | 1.01 to 1.3 | 2.51 to 5 | 2.51 to 5 | 0.101 to 0.15 | > 7.00
8 | Cn1cnnc1[C@@H](F)C1(c2cccc(N3Cc4c(cc(CN5CCC6(CC6)C5)cc4C(F)(F)F)C3=O)c2)COC1 [Example 618, (S)-6-((5-azaspiro[2.4]heptan-5-yl)methyl)-2-(3-(3-(fluoro(4-methyl-4H-1,2,4-triazol-3-yl)methyl)oxetan-3-yl)phenyl)-4-(trifluoromethyl)isoindolin-1-one] | ≥ 7.00 | > 1 | 1.01 to 1.3 | 1.31 to 1.5 | 5 to 7.5 | > 7.5 | 0.101 to 0.15 | > 7.00
9 | Cn1cnnc1CC1(c2cccc(N3Cc4c(cc(CN5CC6CC5CO6)cc4C(F)(F)F)C3=O)c2)COC1 (centres unmarked) [Example 619, 6-((2-oxa-5-azabicyclo[2.2.1]heptan-5-yl)methyl)-2-(3-(3-((4-methyl-4H-1,2,4-triazol-3-yl)methyl)oxetan-3-yl)phenyl)-4-(trifluoromethyl)isoindolin-1-one] | ≥ 7.00 | 0.801 to 1 | 1.01 to 1.3 | 1.01 to 1.3 | 2.51 to 5 | 5 to 7.5 | 0.051 to 0.1 | > 7.00
10 | Cn1cnnc1CC1(c2cccc(N3Cc4c(cc(CN5CCC[C@@H](F)C5)cc4C(F)(F)F)C3=O)c2)COC1 [Example 623, (R)-6-((3-fluoropiperidin-1-yl)methyl)-2-(3-(3-((4-methyl-4H-1,2,4-triazol-3-yl)methyl)oxetan-3-yl)phenyl)-4-(trifluoromethyl)isoindolin-1-one] | ≥ 7.00 | > 1 | 1.31 to 1.5 | 1.31 to 1.5 | > 7.5 | > 7.5 | > 0.201 | > 7.00
11 | CCN1CCN(Cc2cc3c(c(C(F)(F)F)c2)CN(c2cccc(C4(Cc5nncn5C)COC4)c2)C3=O)CC1 [Example 624, 6-((4-ethylpiperazin-1-yl)methyl)-2-(3-(3-((4-methyl-4H-1,2,4-triazol-3-yl)methyl)oxetan-3-yl)phenyl)-4-(trifluoromethyl)isoindolin-1-one] | ≥ 7.00 | > 1 | 1.31 to 1.5 | 1.31 to 1.5 | 5 to 7.5 | > 7.5 | > 0.201 | > 7.00
12 | CN1CCN(Cc2cc3c(c(C(F)(F)F)c2)CN(c2cccc(C4(Cc5nncn5C)COC4)c2)C3=O)CC1 [Example 625, 2-(3-(3-((4-methyl-4H-1,2,4-triazol-3-yl)methyl)oxetan-3-yl)phenyl)-6-((4-methylpiperazin-1-yl)methyl)-4-(trifluoromethyl)isoindolin-1-one] | ≥ 7.00 | > 1 | 1.31 to 1.5 | 1.31 to 1.5 | 2.51 to 5 | > 7.5 | > 0.201 | > 7.00
13 | Cn1cnnc1CC1(c2cccc(N3Cc4c(cc(CN5CCCCC(F)C5)cc4C(F)(F)F)C3=O)c2)COC1 (centres unmarked) [Example 627, 6-((3-fluoroazepan-1-yl)methyl)-2-(3-(3-((4-methyl-4H-1,2,4-triazol-3-yl)methyl)oxetan-3-yl)phenyl)-4-(trifluoromethyl)isoindolin-1-one] | ≥ 7.00 | > 1 | 1.31 to 1.5 | 1.31 to 1.5 | 5 to 7.5 | > 7.5 | > 0.201 | > 7.00
